# According to PubChem BioAssay (NCI):
# “And” between values parts separate entries of the source, which are not always exact repeats. Equal entries are not always repeated.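 Five compound concentrations were applied to cells in 96-well plates for 48 hours; endpoints were derived by simple linear interpolation of the resulting dose-response curve. GI50: concentration for 50% inhibition of growth. At the TGI there is no net growth.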
# Tested on: RXF 393 renal
# Test: NCI-60 cell line screen, 48 h
SMILES,GI50,TGI
COc1cc2c3c(n(CCCNC(=O)OCC4c5ccccc5-c5ccccc54)c(=O)c2cc1OC)-c1cc2c(cc1/C3=C\CCNC(=O)OCC1c3ccccc3-c3ccccc31)OCO2,5.28 µM,14.6 µM
NC(N)=N/N=C(\c1nc2ccc([N+](=O)[O-])cc2[nH]c1=O)C(O)c1ccc([N+](=O)[O-])cc1 (centres undefined),–,> 100 µM
N#C/C(=C1C=C(Br)/C(=N\O)C=C\1Cl)c1cccc2ccccc12,–,4.44 µM
COC(=O)[C@@H](C)CNS(=O)(=O)N(c1cc(C(F)(F)F)cc(C(F)(F)F)c1)C1CCN(Cc2ccc(F)cc2)CC1,10.6 µM,23.7 µM
C=C1C(=O)O[C@@H]2/C=C(\C)CC/C=C(/COC(C)=O)C[C@@H](OC(C)=O)[C@@H]12,–,24.2 µM
COC(=O)[C@H](C)NC(=O)NC(=O)NC(=O)CI,12.5 µM,25.5 µM
COc1cc2c(c(OC)c1OC)-c1ccc(OC)c(=O)cc1[C@@H](NC(=O)c1ccccc1)CC2,< 0.003 µM,8.22 µM and 3.18 µM
NCCCCN(CCCN)/[N+]([O-])=N\O,–,> 100 µM
CCOc1ccccc1NC(=O)CC(C(=O)OC)C(=O)C(=O)OC (centres undefined),–,> 100 µM
COc1cccc2c1C(=O)c1c(O)c3c(c(O)c1C2=O)C[C@@](O)(C(C)=O)C[C@@H]3OC1OC(C)C(O)C(N)C1Br (some centres undefined),–,0.661 µM and 0.864 µM
CN1C/C=C\CCOc2cccc(c2)-c2ccnc(n2)Nc2cccc(c2)C1,0.0221 µM,0.0501 µM
COC(=O)C1=C(C)N(NC(=O)OC(C)(C)C)C(=O)C1=P(c1ccccc1)(c1ccccc1)c1ccccc1,–,> 100 µM
O=C1OC(c2ccccc2)=N/C1=C\c1cccc2ccccc12,–,> 100 µM
C[C@@H]1CC(=O)C2CCCC1C2=O (some centres undefined),–,> 100 µM
COC1=C(C)C(=O)c2c(c(COC(N)=O)c3n2CC2C3N2C)C1=O (centres undefined),–,0.0671 µM
COc1ccc(Cn2cc3c(c2-c2ccccc2)CC(C)(C)c2cnoc2-3)cc1,2.45 µM,> 100 µM
CN1c2ccc(Cl)cc2C(=O)NC1c1ccc([N+](=O)[O-])s1 (centres undefined),–,24.6 µM
c1cc(CNC23CC4CC(CC(C4)C2)C3)cc(C[N+](Cc2cccc(CNC34CC5CC(CC(C5)C3)C4)c2)(Cc2cccc(CNC34CC5CC(CC(C5)C3)C4)c2)Cc2cccc(CNC34CC5CC(CC(C5)C3)C4)c2)c1 (centres undefined),3.39 µM,6.54 µM
Oc1cccnc1CN1CCCCC1,–,> 100 µM
CN(C)C(=O)c1cc2cnc(Nc3ccc(-c4csc5c(=S)cc(N6CCOCC6)oc45)cc3)nc2n1C1CCCC1,0.139 µM,0.495 µM
COC1=CC(=O)c2nc(-c3cccc(C)n3)[nH]c2C1=O,> 100 µM,> 100 µM

# Tested on: KM12 colon
# Test: NCI-60 cell line screen, 48 h
SMILES,GI50,TGI
COc1cc2c3c(n(CCCNC(=O)OCC4c5ccccc5-c5ccccc54)c(=O)c2cc1OC)-c1cc2c(cc1/C3=C\CCNC(=O)OCC1c3ccccc3-c3ccccc31)OCO2,> 27.9 µM,> 50 µM
NC(N)=N/N=C(\c1nc2ccc([N+](=O)[O-])cc2[nH]c1=O)C(O)c1ccc([N+](=O)[O-])cc1 (centres undefined),–,> 100 µM
N#C/C(=C1C=C(Br)/C(=N\O)C=C\1Cl)c1cccc2ccccc12,–,19.4 µM
COC(=O)[C@@H](C)CNS(=O)(=O)N(c1cc(C(F)(F)F)cc(C(F)(F)F)c1)C1CCN(Cc2ccc(F)cc2)CC1,4.92 µM,17.6 µM
C=C1C(=O)O[C@@H]2/C=C(\C)CC/C=C(/COC(C)=O)C[C@@H](OC(C)=O)[C@@H]12,–,34.3 µM
COC(=O)[C@H](C)NC(=O)NC(=O)NC(=O)CI,17.8 µM,35.5 µM
COc1cc2c(c(OC)c1OC)-c1ccc(OC)c(=O)cc1[C@@H](NC(=O)c1ccccc1)CC2,–,1.14 µM
NCCCCN(CCCN)/[N+]([O-])=N\O,–,> 100 µM
CCOc1ccccc1NC(=O)CC(C(=O)OC)C(=O)C(=O)OC (centres undefined),–,> 100 µM
COc1cccc2c1C(=O)c1c(O)c3c(c(O)c1C2=O)C[C@@](O)(C(C)=O)C[C@@H]3OC1OC(C)C(O)C(N)C1Br (some centres undefined),0.0797 µM,0.426 µM and 0.453 µM
CN1C/C=C\CCOc2cccc(c2)-c2ccnc(n2)Nc2cccc(c2)C1,0.0377 µM,0.506 µM
COC(=O)C1=C(C)N(NC(=O)OC(C)(C)C)C(=O)C1=P(c1ccccc1)(c1ccccc1)c1ccccc1,–,> 100 µM
O=C1OC(c2ccccc2)=N/C1=C\c1cccc2ccccc12,–,> 100 µM
C[C@@H]1CC(=O)C2CCCC1C2=O (some centres undefined),–,> 100 µM
COC1=C(C)C(=O)c2c(c(COC(N)=O)c3n2CC2C3N2C)C1=O (centres undefined),–,0.143 µM
COc1ccc(Cn2cc3c(c2-c2ccccc2)CC(C)(C)c2cnoc2-3)cc1,0.783 µM,> 100 µM
CN1c2ccc(Cl)cc2C(=O)NC1c1ccc([N+](=O)[O-])s1 (centres undefined),–,31.9 µM
c1cc(CNC23CC4CC(CC(C4)C2)C3)cc(C[N+](Cc2cccc(CNC34CC5CC(CC(C5)C3)C4)c2)(Cc2cccc(CNC34CC5CC(CC(C5)C3)C4)c2)Cc2cccc(CNC34CC5CC(CC(C5)C3)C4)c2)c1 (centres undefined),6.92 µM,28.2 µM
Oc1cccnc1CN1CCCCC1,–,> 100 µM
CN(C)C(=O)c1cc2cnc(Nc3ccc(-c4csc5c(=S)cc(N6CCOCC6)oc45)cc3)nc2n1C1CCCC1,0.18 µM,> 50 µM
COC1=CC(=O)c2nc(-c3cccc(C)n3)[nH]c2C1=O,35.4 µM,> 100 µM

# Tested on: HOP-92 NSCLC
# Test: NCI-60 cell line screen, 48 h
SMILES,GI50,TGI
COc1cc2c3c(n(CCCNC(=O)OCC4c5ccccc5-c5ccccc54)c(=O)c2cc1OC)-c1cc2c(cc1/C3=C\CCNC(=O)OCC1c3ccccc3-c3ccccc31)OCO2,> 40.7 µM,> 50 µM
NC(N)=N/N=C(\c1nc2ccc([N+](=O)[O-])cc2[nH]c1=O)C(O)c1ccc([N+](=O)[O-])cc1 (centres undefined),–,> 100 µM
N#C/C(=C1C=C(Br)/C(=N\O)C=C\1Cl)c1cccc2ccccc12,–,21.9 µM
COC(=O)[C@@H](C)CNS(=O)(=O)N(c1cc(C(F)(F)F)cc(C(F)(F)F)c1)C1CCN(Cc2ccc(F)cc2)CC1,5.76 µM,20 µM
C=C1C(=O)O[C@@H]2/C=C(\C)CC/C=C(/COC(C)=O)C[C@@H](OC(C)=O)[C@@H]12,–,21.1 µM
COC(=O)[C@H](C)NC(=O)NC(=O)NC(=O)CI,6.79 µM,19.7 µM
COc1cc2c(c(OC)c1OC)-c1ccc(OC)c(=O)cc1[C@@H](NC(=O)c1ccccc1)CC2,–,6.68 µM
NCCCCN(CCCN)/[N+]([O-])=N\O,–,> 100 µM
CCOc1ccccc1NC(=O)CC(C(=O)OC)C(=O)C(=O)OC (centres undefined),–,> 100 µM
COc1cccc2c1C(=O)c1c(O)c3c(c(O)c1C2=O)C[C@@](O)(C(C)=O)C[C@@H]3OC1OC(C)C(O)C(N)C1Br (some centres undefined),0.0602 µM,0.422 µM and 0.474 µM
